# Measured values published in patent US20170189357A1, “METHODS OF LIMITING MORBIDITY IN HEMOGLOBINOPATHIES” (DUKE UNIVERSITY, priority 2014, published 2017).
# Where two headings read alike, the source gives them in different places.
# What was measured:
# SSRBCs = experiment: SSRBC adhesion to HUVECs after PTx/CTx treatment, with or without tyrosine kinase inhibitors, intermittent flow; assay type: cell-based, human; conditions: 1 μM inhibitor before 1 μg/ml PTx; for inhibition of the effect of PTx on sickle cell adhesion: shear stress 2 dynes/cm^2, p<0.01
# Protocol: FIG. 9 is a set of figures showing that activation of Gas protein increased SSRBC adhesion to endothelial cells via activation of tyrosine kinases. FIG. 9A is a schematic depiction of GPCR pathways along with inhibitors and stimuli of the kinases of these pathways regulating SSRBC adhesion. FIGS. 9B-E are a set of graphs showing adherence of RBCs which were sham-treated, or treated with Pertussis toxin (PTx) (0.5, 1 or 2 μg/ml) (FIGS. 9B-D), 1 μg/ml Cholera toxin (CTx) (FIG. 9B) or phenylarsine oxide (0.1, 10, 20, 40 and 80 μM) (FIG. 9E), or pretreated with 1 μM PP1, 1 μM PP2 or 1 μM piceatannol prior to treatment with 1 μg/ml PTx (FIG. 9C and FIG. 9D). Treated RBCs were tested for adhesion to HUVECs in intermittent flow conditions at different shear stresses. Data are presented as % adherent RBCs (FIG. 9B) or SSRBCs (FIG. 9C-FIG. 9E) at a shear stress of 2 dynes/cm^2. Each graph is representative of 3 different experiments. Error bars show standard error of the mean (SEM). *: p<0.001 compared to sham-treated RBCs; **: p<0.01 compared to PTx-treated RBCs.
# Vaso-occlusion is associated with various types of physiological stress. β2-adrenergic receptors (β2AR) stimulation with catacholamines employs both Gas and &Gai (or Ga0) pathways. We first determined the Ga, Gas and/or Gai, in sickle cell regulating tyrosine kinase activation-mediated sickle cell adhesion to endothelial cells (FIG. 9A). Sickle cells adhered to some degree to endothelial cells under intermittent flow conditions at a shear stress of 2 dynes/cm^2. (FIGS. 9B-D). […] The selective Src-family kinase inhibitors, PP1 and PP2 (FIG. 9A), and the non-receptor tyrosine kinase p72^Syk inhibitor, piceatannol (FIG. 9A), inhibited the effect of PTx on sickle cell adhesion by 67±2.7%, 64±1.7% and 60 ±5.5%, respectively (p<0.01) (FIGS. 9C and 9D).
# sickle RBCs [1] = conditions: 20 nM epinephrine, non-activated HUVECs
# ERK [2] = conditions: 20 nM epinephrine; n=19; p<0.05
# sickle cells = experiment: Hypoxia-induced sickle cell adhesion to microvascular endothelial cells, intermittent flow; assay type: cell-based, human; conditions: hypoxia 8% O2 2 h, then RDEA119; shear stress 1-2 dynes/cm^2
# Protocol: Sickle cells were exposed to room air (sham) or hypoxia (H) (8% O2) for 2 h followed by treatment with RDEA119 MEK inhibitor, then washed. SSRBC adhesion to microvascular endothelial cells was tested in intermittent flow condition assays, and results are presented as % adherent SSRBCs at a shear stress of 1-2 dynes/cm^2. […] Error bars show SEM of 3 different experiments.
# One of the major pathophysiologic processes in SCD is vasoocclusion in response to hypoxia.
# murine sickle RBCs = conditions: for inhibition of murine sickle RBC adhesion: versus vehicle, p<0.0001
# leukocytes = experiment: Leukocyte adhesion in transgenic sickle cell mice after TNFα challenge; conditions: 0.025, 0.05 and 0.1 mg/kg; versus vehicle
# human sickle RBCs = experiment: Human sickle RBC adhesion and vaso-occlusion in TNFα-pretreated nude mice, intravital microscopy; conditions: sickle RBCs treated ex vivo
# Protocol: FIG. 5 is a set of photographs and graphs showing that ERK in sickle RBCs promotes vaso-occlusion in nude mice in vivo. FIG. 5A, FIG. 5B and FIG. 5C are a set of photographs showing nude mice implanted with dorsal skin-fold window chambers after injection with murine TNFα. Four hours later, intravital microscopic observations of post-capillary venules and arterioles using 10× and 20× magnifications were conducted through the window chamber immediately after infusion of fluorescently labeled human sickle RBCs (n=5) that were sham-treated (FIG. 5A; panels 1, 2, 3 and 4) or treated with the MEK inhibitor RDEA119 (FIG. 5B panels 1, 2 and 3), or human normal (AA) RBCs (n=3) sham-treated (FIG. 5C; two panels on the left) or RDEA119-treated (FIG. 5C; 2 panels on the right). Vessels without adherent cells appear gray, due to the rapidly moving of fluorescence labeled RBCs. Adhesion of human sickle RBCs in enflamed vessels and vaso-occlusion are indicated with arrows and appear as white spots in the vessels. […] Scale bar=50 μm. FIG. 5D is a graph showing quantification of the fluorescence intensity of video frames of vessel and arteriole segments used to quantify adhesion in venules and arterioles of animals occupied by sickle RBCs (n=5 for each treatment). Adhesion of fluorescently labeled sham-treated sickle RBCs (sham-treated SS) and RDEA119-treated sickle RBCs (RDEA119-treated SS) in all vessels and arterioles recorded presented as fluorescence intensity [fluorescence unit (FU)] of adherent sickle RBCs. FIG. 5E-FIG. 5G are graphs showing the values of at least 180 segments of vessels and arterioles analyzed and averaged among groups of animals (n=5) to represent percentage of vessels occupied by adherent sickle RBCs (FIG. 5E); percentage of vessels with normal blood flow, slow blood flow and no blood flow (FIG. 5F), and percentage of normal flowing vessels (FIG. 5G). Error bars show SEM of 5 different experiments for each treatment condition, *: p<0.001 compared to sham-treated sickle RBCs regardless of the vessel diameter within the ranges specified for D, E and G. […]
# human normal (AA) RBCs = experiment: Normal human RBC adhesion in TNFα-pretreated nude mice, intravital microscopy; conditions: normal human RBCs treated ex vivo
# From the text: FIG. 5 is a set of photographs and graphs showing that ERK in sickle RBCs promotes vaso-occlusion in nude mice in vivo. FIG. 5A, FIG. 5B and FIG. 5C are a set of photographs showing nude mice implanted with dorsal skin-fold window chambers after injection with murine TNFα. […] Vessels without adherent cells appear gray, due to the rapidly moving of fluorescence labeled RBCs. […] FIG. 5D is a graph showing quantification of the fluorescence intensity of video frames of vessel and arteriole segments used to quantify adhesion in venules and arterioles of animals occupied by sickle RBCs (n=5 for each treatment). Adhesion of fluorescently labeled sham-treated sickle RBCs (sham-treated SS) and RDEA119-treated sickle RBCs (RDEA119-treated SS) in all vessels and arterioles recorded presented as fluorescence intensity [fluorescence unit (FU)] of adherent sickle RBCs. FIG. 5E-FIG. 5G are graphs showing the values of at least 180 segments of vessels and arterioles analyzed and averaged among groups of animals (n=5) to represent percentage of vessels occupied by adherent sickle RBCs (FIG. 5E); percentage of vessels with normal blood flow, slow blood flow and no blood flow (FIG. 5F), and percentage of normal flowing vessels (FIG. 5G). […]
# ERK [3] = experiment: ERK phosphorylation in sickle RBCs exposed to hypoxia (Western blot of membrane ghosts); assay type: cell-based, human; conditions: hypoxia 8% oxygen 2 hours
# p60-c-Src [4] = experiment: p60-c-Src phosphorylation in SSRBCs (Western blot of membrane ghosts); assay type: cell-based, human; conditions: 1 μM inhibitor before 1 μg/ml PTx; p<0.0001
# From the text: (§1) FIG. 10 is a set of figures showing inhibition of Gai protein increased phosphorylation of p72^syk and p60-c-Src tyrosine kinases in intact SSRBCs. FIG. 10A-FIG. 10G show the kinase expression results for twenty μg of membrane protein ghosts (SSRBC ghosts, n=7, SS1, SS2, SS3, SS4, SS5, SS6 and SS7; and normal RBC ghosts, n=7, AA1, AA2, AA3AA4, AA5, AA6 and AA7) were used per lane. FIG. 10A-FIG. 10D show Western blots and corresponding graphs showing the kinase expression results of protein ghosts which were stained with antibodies against phosphorylated p60-c-Src [p-p60-c-Src (SS1, SS2, SS3, SS4; and AA1, AA2, AA3, AA4)] and p60-c-Src [p60-c-Src (SS1, SS2, SS3, SS4, SS5, SS6, SS7, and AA1, AA2, AA3, AA4, AA5, AA6, AA7)]; and phosphorylated p72^syk [p-Syk (SS1, SS2, SS3, SS4; and AA1, AA2, AA3, AA4)] and p72^syk[Syk (SS1, SS2, SS3, SS4, SS5, SS6, SS7; and AA1, AA2, AA3, AA4, AA5, AA6, AA7)]. Antibody against glycophorin C was used as a loading control. FIG. 10C and FIG. 10D show the quantitative analysis of the data presented as relative kinase expression [SSRBCs (n=7) and AARBCs (n=7)], and as relative kinase phosphorylation [SSRBCs (n=4) and AARBCs (n=4)]. […] Quantitative analysis of the data (normalized according to total kinase expression) is presented as fold change in p60-c-Src phosphorylation (FIG. 10E and FIG. 10F) and Syk phosphorylation (FIG. 10G). […]
# human sickle red cell = conditions: systemic administration; cited from earlier work
# sickle RBCs [5] = experiment: Sickle RBC adhesion to non-activated and TNFα-activated HUVECs, intermittent flow; assay type: cell-based, human; conditions: U0126 10 μM; TNFα-activated HUVECs; shear stress 2 dynes/cm^2; p<0.05
# neutrophils (PMNs) = conditions: sickle RBCs treated with 10 μM U0126, then epinephrine; co-incubated with PMNs
# p60-c-Src [6] = experiment: p60-c-Src phosphorylation in normal RBCs (Western blot); assay type: cell-based, human; conditions: 1 μM PP1; normal RBCs by context (FIG. 10F)
# From the text: as §1
compound,measurement,setting,value
Oc1cc(O)cc(/C=C/c2ccc(O)c(O)c2)c1 [piceatannol],inhibition at 1 µM,"SSRBCs; Homo sapiens, HUVEC, shear stress 2 dynes/cm^2, p<0.01, read-out: inhibition of the effect of PTx on sickle cell adhesion",60 ± 5.5%
"CNC[C@H](O)c1ccc(O)c(O)c1 [Epinephrine, epinephrine]",sickle cell adhesion to normal endothelial cells,sickle RBCs [1]; shear stress 2 dynes/cm^2,increased sickle cell adhesion to normal endothelial cells
same,phosphorylation of sickle cell ERK,ERK [2],increased phosphorylation of sickle cell ERK
COc1cc(F)c(F)c(Nc2ccc(I)cc2F)c1NS(=O)(=O)C1(C[C@H](O)CO)CC1 [RDEA119],effect of hypoxia on sickle cell adhesion to endothelial cells,sickle cells,almost completely inhibited
same,inhibition of murine sickle RBC adhesion,murine sickle RBCs; 0.025 mg/kg infused 120 min after TNFα,76%
same,inhibition of murine sickle RBC adhesion,murine sickle RBCs; 0.05 mg/kg infused 120 min after TNFα,99%
same,inhibition of murine sickle RBC adhesion,murine sickle RBCs; 0.1 mg/kg infused 120 min after TNFα,98%
same,time to reversal of murine sickle RBC adhesion after drug administration,"murine sickle RBCs; lowest dose 0.025 mg/kg, effect sustained over time",≤ 10 min
same,vessels with restored blood flow,"murine sickle RBCs; p<0.05 for each RDEA119 dose (0.025, 0.05, 0.1 mg/kg)",57%
same,time to abrogation of leukocyte adhesion after administration,leukocytes,≤ 10 min
same,vaso-occlusion by treated sickle cells,human sickle RBCs; nude mice pretreated with TNFα,no visible vase-occlusion
same,reduction of SSRBC adhesion compared to sham-treated SSRBCs,"human sickle RBCs; nude mice pretreated with TNFα, n=5, p<0.0001",88%
same,vessels and arterioles with normal blood flow,"human sickle RBCs; nude mice, versus 50±5.5% with sham-treated cells",86±3.3%
same,adherence of normal human RBCs in enflamed vessels,human normal (AA) RBCs,no real adherence
O=C1Nc2ccc(I)cc2/C1=C/c1cc(Br)c(O)c(Br)c1 [GW5074],effect of hypoxia on ERK phosphorylation,ERK [3],decreased the effect of hypoxia on ERK phosphorylation
CC(C)=CCCC(C)=CCCC(C)=CCSc1ccccc1C(=O)O [farnesylthiosalicylic acid],effect of hypoxia on ERK phosphorylation,ERK [3],decreased the effect of hypoxia on ERK phosphorylation
CC(C)(C)n1nc(-c2ccc(Cl)cc2)c2c(N)ncnc21 [PP2],inhibition of the effect of PTx on sickle cell adhesion,SSRBCs,64±1.7%
same,PTx-increased p60-c-Src phosphorylation in sickle cells,p60-c-Src [4],to levels below baseline phosphorylation
CC(C)NCC(O)COc1cccc2ccccc12 (centres unmarked) [propranolol],human sickle red cell adhesion and associated vasoocclusion in mice,human sickle red cell,inhibited human sickle red cell adhesion
N#CC(=C(/N)Sc1ccccc1N)/C(C#N)=C(\N)Sc1ccccc1N [U0126],sickle cell adhesion to TNFα-activated endothelial cells,sickle RBCs [5],reduced sickle cell adhesion
same,effect of hypoxia on ERK phosphorylation,ERK [3],decreased the effect of hypoxia on ERK phosphorylation
same,epinephrine-activated sickle cell adhesion,sickle RBCs [1]; U0126 10 μM,inhibited activated sickle cell adhesion
same,sickle cell-induced PMN adhesion to endothelial cells,neutrophils (PMNs),decreased sickle cell-induced PMN adhesion
Cc1ccc(-c2nn(C(C)(C)C)c3ncnc(N)c23)cc1 [PP1],inhibition of the effect of PTx on sickle cell adhesion,SSRBCs,67±2.7%
same,PTx-increased p60-c-Src phosphorylation in sickle cells,p60-c-Src [4],to levels below baseline phosphorylation
same,"phosphorylation of p60-c-Src, inhibitor effect",p60-c-Src [6],inhibited
